Data reported in patent publication US6683055B1, “Low molecular weight inhibitors of complement proteases” (BASF Aktiengesellschaft, priority 1999, dated 2004).
Structures can show the parent of a compound that is named as a salt.

Key:
[1] = target: T1, C1r from human plasma, activated, two-chain form (Homo sapiens, UniProt P00736); assay: Color substrate test for C1r inhibition (Example A); type: biochemical; settings: amidolytic C1r activity, substrate Cbz-Gly-Arg-S-Bzl; read-out: C1R IC50 according to Example A
T1 construct: from tissue; host or cells: human plasma
T1 sequence (P00736 18-463 partner limits assumed): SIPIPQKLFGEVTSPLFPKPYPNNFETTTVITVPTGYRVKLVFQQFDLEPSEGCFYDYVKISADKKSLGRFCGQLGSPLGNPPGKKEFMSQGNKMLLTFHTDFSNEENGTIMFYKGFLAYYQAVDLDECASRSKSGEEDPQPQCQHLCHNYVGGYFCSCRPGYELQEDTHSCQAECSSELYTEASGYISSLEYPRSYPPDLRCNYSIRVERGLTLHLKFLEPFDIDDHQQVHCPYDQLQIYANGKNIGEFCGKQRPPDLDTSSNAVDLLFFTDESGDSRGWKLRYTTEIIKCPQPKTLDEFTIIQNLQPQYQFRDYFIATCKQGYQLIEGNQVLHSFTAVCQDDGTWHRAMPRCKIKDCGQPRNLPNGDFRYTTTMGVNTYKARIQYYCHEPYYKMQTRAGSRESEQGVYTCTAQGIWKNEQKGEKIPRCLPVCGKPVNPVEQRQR
T1 sequence (P00736 464-705 limits assumed): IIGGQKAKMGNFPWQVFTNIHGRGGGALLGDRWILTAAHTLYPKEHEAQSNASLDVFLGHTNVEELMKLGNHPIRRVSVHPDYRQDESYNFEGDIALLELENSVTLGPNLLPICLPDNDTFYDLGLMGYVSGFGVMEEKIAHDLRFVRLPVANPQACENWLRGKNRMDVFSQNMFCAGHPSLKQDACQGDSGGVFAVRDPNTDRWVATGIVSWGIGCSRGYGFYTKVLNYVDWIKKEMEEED
Excerpt: Color Substrate Test for C1r Inhibition

[2] = target: T2, C1s from human plasma, activated, two-chain form (Homo sapiens, UniProt P09871); assay: Color substrate test for C1s inhibition (Example B); type: biochemical; settings: amidolytic C1s activity, substrate Cbz-Gly-Arg-S-Bzl; read-out: C1S IC50 according to Example B
T2 construct: from tissue; host or cells: human plasma
T2 sequence (P09871 16-437 partner limits assumed): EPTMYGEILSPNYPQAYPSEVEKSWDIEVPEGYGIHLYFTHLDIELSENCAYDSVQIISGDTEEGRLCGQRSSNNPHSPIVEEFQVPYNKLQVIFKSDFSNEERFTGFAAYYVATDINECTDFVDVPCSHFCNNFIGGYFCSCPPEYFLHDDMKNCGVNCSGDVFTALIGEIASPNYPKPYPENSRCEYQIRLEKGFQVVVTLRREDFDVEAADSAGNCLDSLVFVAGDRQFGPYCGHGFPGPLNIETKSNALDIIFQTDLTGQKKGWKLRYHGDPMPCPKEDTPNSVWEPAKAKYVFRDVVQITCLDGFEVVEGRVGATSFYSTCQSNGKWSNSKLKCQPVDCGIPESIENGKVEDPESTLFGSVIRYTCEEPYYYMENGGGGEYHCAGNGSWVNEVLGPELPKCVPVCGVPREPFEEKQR
T2 sequence (P09871 438-688 limits assumed): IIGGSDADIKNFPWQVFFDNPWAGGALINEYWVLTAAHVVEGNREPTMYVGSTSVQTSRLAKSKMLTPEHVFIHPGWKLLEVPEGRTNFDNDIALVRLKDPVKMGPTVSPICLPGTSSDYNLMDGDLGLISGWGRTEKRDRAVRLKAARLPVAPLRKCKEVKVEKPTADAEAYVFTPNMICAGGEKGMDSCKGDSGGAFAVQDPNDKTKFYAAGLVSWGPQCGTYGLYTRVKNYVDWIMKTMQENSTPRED
Excerpt: Material and Methods: Color Subrate Test for C1s Inhibition

Molecule	IC50 [1] [µM]	IC50 [2] [µM]
N=C(N)c1ccc(CNC(=O)[C@@H]2CCCN2C(=O)[C@H]2Cc3ccccc3CN2)cc1 [Example 11, H-(D)3-Tic-Pro-NH-p-amb.2CH3COOH]	> 100	30
N=C(N)c1coc(CNC(=O)[C@@H]2C=CCN2C(=O)[C@@H](CC2CCCCC2)NCC(=O)O)c1 [Example 44, HOOC—CH2-(D)Cha-Pyr-NH—CH2-5-(3-am)-fur.CH3COOH]	40	3
N=C(N)c1csc(CNC(=O)[C@@H]2CC3CCCCC3N2C(=O)[C@H](NCC(=O)O)C2CCCCC2)c1 (stereo partly drawn) [Example 48, HOOC—CH2-(D)Chg-(L)Ohi-2-CO—NH—CH2-5-(3-am)-thioph.HCl]	50	30
N=C(N)c1csc(CNC(=O)C2SCCN2C(=O)[C@@H](CC2CCCCC2)NCC(=O)O)c1 (stereo partly drawn) [Example 46, HOOC—CH2-(D)Cha-Thz-2-CO—NH—CH2-5-(3-am)-thioph.2HCl]	40	20
N=C(N)c1csc(CNC(=O)[C@@H]2CC3CCCCC3N2C(=O)[C@@H](CC2CCCCC2)NCC(=O)O)c1 (stereo partly drawn) [Example 47, HOOC—CH2-(D)Cha-(L)Ohi-2-CO—NH—CH2-5-(3-am)-thioph.HCl]	10	50
N=C(N)c1csc(CNC(=O)C2SCCN2C(=O)[C@H](NCC(=O)O)C2CCCCC2)c1 (stereo partly drawn) [Example 45, HOOC—CH2-(D)Chg-Thz-2-CO—NH—CH2-5-(3-am)-thioph]	6	20
CS(=O)(=O)N[C@H](CC1CCCCC1)C(=O)N1CC=C[C@H]1C(=O)NCc1ccc(C(=N)N)nc1 [Example 13, CH3—SO2-(D)Cha-Pyr-NH-3-(6-am)-pico.CH3COOH]	30	10
N=C(N)c1ccc(CNC(=O)[C@@H]2CCN2C(=O)[C@H](NCC(=O)O)C2CCCCC2)s1 [Example 31, HOOC—CH2-(D)Chg-Aze-NH-CH2-5-(2-am)-thioph]	3	10
CCCCCCCCS(=O)(=O)N[C@H](Cc1ccccc1)C(=O)N1CCC[C@H]1C(=O)NCc1ccc(C(=N)N)cc1 [Example 2, n-Octyl-SO2-(D)Phe-Pro-NH-p-amb.CH3COOH]	50	20
CC(C)(C)OC(=O)CCCN[C@@H](C(=O)N1CCC[C@H]1C(=O)NCc1ccc(C(=N)N)nc1)C1CCCCC1 [Example 27, t-BUOOC—(CH2)3-(D)Chg-Pro-NH-3-(6-am)-pico.CH3COOH]	10	20
N=C(N)c1csc(CNC(=O)[C@@H]2C=CCN2C(=O)C(NCC(=O)O)C2CCCCCC2)c1 (stereo partly drawn) [Example 41, HOOC—CH2-Cheg-Pyr-NH—CH2-5-(3-am)-thioph.CH3COOH]	2	2
N=C(N)c1ccc(CNC(=O)[C@@H]2C=CCN2C(=O)[C@@H](CC2CCCCC2)NS(=O)(=O)Cc2ccc(N)cc2)cn1 [Example 21, H2N-p-C6H4CH2—SO2-(D)Cha-Pyr-NH-3-(6-am)-pico-HCl]	4	1
HOOC—CH2—CH2-(D)Cha-Pro-NH-CH2-5-(2-am)-thioph.CH3COOH [Example 30]	> 100	5
N=C(N)c1ccc(CNC(=O)[C@@H]2CCCN2C(=O)[C@@H](Cc2ccccc2)NCCCS(=O)(=O)O)cc1 [Example 12, HO3S—(CH2)3-(D)Phe-Pro-NH-p-amb.HCl]	> 100	30
N=C(N)Nc1ncc(CNC(=O)[C@@H]2C=CCN2C(=O)[C@@H](CC2CCCCC2)NCC(=O)O)s1 [Example 54, N-(Hydroxycarbonyl-methylene)-(D)cyclohexylalanyl-3,4-dehydroprolyl-[5-(2-guanidino)thiazolylmethyl]amide Bishydrochloride]		8
N=C(N)c1ccc(CNC(=O)[C@@H]2C=CCN2C(=O)[C@H](NCC(=O)O)C2CCCCC2)cn1 [Example 18, HOOC—CH2-(D)Chg-Pyr-NH-3-(6-am)-pico.CH3COOH]	10	7
HOOC—CH2-(D)Cha-Pyr-NH—CH2-5-(3-Me-2-am)-thioph.CH3COOH [Example 53]	8	20

Molecule	IC50 [1] [µM]	IC50 [2] [µM]
N=C(N)c1csc(CNC(=O)C2C=CCN2C(=O)C(NCC(=O)O)C2CCCCC2)c1Cl (stereo not drawn) [Example 49, HOOC—CH2-(D)Chg-Pyr-NH—CH2-5-(4-Cl-3-am)-thioph.CH3COOH]	1	1
N=C(N)c1ccc(CNC(=O)[C@@H]2CCCN2C(=O)[C@H](NCCCCCC(=O)O)C2CCCCC2)cn1 [Example 24, HOOC—(CH2)5-(D)Chg-Pro-NH-3-(6-am)-pico.CH3COOH]	> 100	0.8
CS(=O)(=O)N[C@H](CC1CCCCC1)C(=O)N1CC=C[C@H]1C(=O)NCc1ccc(C(=N)N)cc1 [Example 4, CH3—SO2-(D)Cha-Pyr-NH-p-amb.CH3COOH]	30	3
CCOC(=O)CCCCCN[C@@H](C(=O)N1CCC[C@H]1C(=O)NCc1ccc(C(=N)N)nc1)C1CCCCC1 [Example 25, C2H5OOC—(CH2)5-(D)Chg-Pro-NH-3-(6-am)-pico.CH3COOH]	50	6
N=C(N)c1csc(CNC(=O)C2C=CCN2C(=O)C(CC2CCCCC2)NCC(=O)O)c1Cl (stereo not drawn) [Example 50, HOOC—CH2(D)Cha-Pyr-NH—CH2-5-(4-Cl-3-am)-thioph.CH3COOH]	20	3
N=C(N)c1ccc(CNC(=O)[C@@H]2CCCN2C(=O)[C@H](NS(=O)(=O)CC(=O)O)C2CCCCC2)cn1 [Example 16, HOOC—CH2—SO2-(D)Chg-Pro-NH-3-(6-am)-pico.CH3COOH]	> 100	20
N=C(N)c1csc(CNC(=O)[C@@H]2C=CCN2C(=O)C(NCC(=O)O)C2CCCC2)c1 (stereo partly drawn) [Example 42, HOOC—CH2-Cpg-Pyr-NH—CH2-5-(3-am)-thioph.CH3COOH]	0.7	1
N=C(N)c1csc(CNC(=O)[C@@H]2CCN2C(=O)[C@H](NCC(=O)O)C2CCCCC2)c1 [Example 39, HOOC—CH2-(D)Chg-Aze-NH—CH2-5-(3-am)-thioph]	2	10
N=C(N)c1ccc(CNC(=O)[C@@H]2CCCN2C(=O)CNC(=O)CCCc2ccccc2)cc1 [Example 9, C6H5—(CH2)3—CO-Gly-Pro-NH-p-amb.HI]	> 100	20
N=C(N)c1ccc(CNC(=O)[C@@H]2CCCN2C(=O)[C@@H](Cc2ccccc2)NS(=O)(=O)CC(F)(F)F)cc1 [Example 1, CF3—CH2—SO2-(D)Phe-Pro-NH-p-amb.CH3COOH]	> 100	6
N=C(N)c1ccc(CNC(=O)[C@@H]2CCCN2C(=O)[C@@H](Cc2ccccc2)NS(=O)(=O)c2cccnc2)cc1 [Example 3, 3-Py-SO2-(D)Phe-Pro-NH-p-amb.CH3COOH]	> 100	30
N=C(N)c1ccc(CNC(=O)[C@@H]2C=CCN2C(=O)CN(Cc2ccccc2)Cc2ccccc2)cn1 [Example 28, (C6H5—CH2)2-Gly-Pyr-NH-3-(6-am)-pico.CH3COOH]	> 100	20
N=C(N)c1ccc(CNC(=O)[C@@H]2C=CCN2C(=O)[C@@H](CC2CCCCC2)NS(=O)(=O)Cc2ccccc2)cn1 [Example 15, C6H5—CH2—SO2-(D)Cha-Pyr-NH-3-(6-am)-pico.CH3COOH]	3	2
N=C(N)c1ccc(CNC(=O)[C@@H]2C=CCN2C(=O)[C@@H](CC2CCCCC2)NCC(=O)O)s1 [Example 32, HOOC—CH2-(D)Cha-Pyr-NH—CH2-5-(2-am)-thioph.CH3COOH]	10	30
CC(C)[C@@H](N)C(=O)N1CCC[C@H]1C(=O)NCc1ccc(C(=N)N)cc1 [Example 5, H-(D)Val-Pro-NH-p-amb.2HCl]		10
CC(C)(C)OC(=O)N[C@H](CC(=O)OCc1ccccc1)C(=O)N1CCC[C@H]1C(=O)NCc1ccc(C(=N)N)cc1 [Example 6, Boc-(D)Asp(OBn)-Pro-NH-p-amb.CH3COOH]		6
